Results on one compound are retold here after patent US7732603B2, “Organic compounds as agents for the treatment of aldosterone mediated conditions” (Novartis AG, priority 2002, dated 2010).

The target of series [1] is T1, aldosterone synthase (Rattus norvegicus, UniProt P30099).
T1 construct: The adrenals are decapsulated to obtain the glomerulosa tissue; The tissue is homogenized in a glass homogenizer; from tissue; host or cells: rat adrenal glomerulosa tissue homogenate (900 x g supernatant), sodium-depleted Sprague-Dawley rats
T1 sequence (P30099 35-510): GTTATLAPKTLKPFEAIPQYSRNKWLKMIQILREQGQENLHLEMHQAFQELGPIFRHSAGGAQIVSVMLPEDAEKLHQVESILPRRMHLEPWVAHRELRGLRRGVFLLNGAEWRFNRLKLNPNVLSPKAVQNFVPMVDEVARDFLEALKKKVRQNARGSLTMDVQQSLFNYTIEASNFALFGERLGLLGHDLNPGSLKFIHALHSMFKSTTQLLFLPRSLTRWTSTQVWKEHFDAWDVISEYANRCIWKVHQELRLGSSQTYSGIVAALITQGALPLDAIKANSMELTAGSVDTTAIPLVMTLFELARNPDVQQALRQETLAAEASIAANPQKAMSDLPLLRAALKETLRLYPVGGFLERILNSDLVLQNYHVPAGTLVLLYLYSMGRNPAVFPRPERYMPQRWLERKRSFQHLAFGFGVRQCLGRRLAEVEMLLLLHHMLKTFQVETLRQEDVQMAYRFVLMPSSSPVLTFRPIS
Kind of series: aldosterone synthase inhibitory activity in vitro (rat adrenal glomerulosa homogenate, conversion of [3H]corticosterone). It is filed as biochemical. The conditions noted are these: read-out: inhibit the aldosterone synthase activity with an IC50 value. The source says: The aldosterone synthase inhibitory activity in vitro may be determined as follows:
Adult male Sprague-Dawley rats weighing 125-150 g are obtained from Harlan Farms. All animals are caged in pairs and maintained under standard conditions of light and temperature. The animals are placed on a sodium depleted diet (0.01-0.02%) from Harland Teklad, Madison Wis. (cat# TD90228) and maintained on normal drinking water ad libitum. The animals are maintained on this diet for two to four weeks prior to harvesting the adrenal glomerulosa cells. The rats are killed by CO2 inhalation, and the adrenals are immediately removed and placed in the same ice-cold buffer used during homogenization and assay of the enzyme preparation. The adrenals are decapsulated to obtain the glomerulosa tissue. The tissue is homogenized in a glass homogenizer containing Tris assay buffer (8.5 mM MgCl2, 2.7 mM CaCl2, 3.13 mM KCl, 7.59 mM NaCl, 0.1% TEA and 50 mM Tris HCl adjusted to pH 7.4). The homogenate is diluted so that 37.5 mg of glomerulosa tissue is in each mL of buffer. […] The plates are scanned for radioactivity with a Bioscan System 200 Imaging Scanner (Bioscan, Ish. DC). The two products of the aldosterone synthase, 18-OH-corticosterone and aldosterone are scraped and counted in a liquid scintillation counter (Beckman LS6000TA, Beckman Instr., Palo Alto, Calif.).
The IC50s are determined from a logit-log plot (pseudo-Hill plot) according to the equation (see Pratt and Taylor, Eds, “Principles of Drug Action”, Churchill Livingstone Inc, NY (1990)): log P/(100−P)=n log[I][…] where P is the percent competition of specific binding in the presence of a given concentration of inhibitor (I). The slope (Hill Coefficient) and x intercept (IC50) are determined by linear regression of the experimental data. The Km(app) is calculated by a computer program according to the Hanes equation (see Cornish-Bowden, Ed., “Principles of Enzyme Kinetics”, Butterworth & Co., Boston, Mass. (1976)): s/v=Km/V+s/V where Km=Michaelis constant, V=maximum velocity, s=substrate concentration, v=velocity.

A word on the IC50: it is the concentration that gives 50% inhibition. In general, melting point refers to the temperature, or range, at which the solid turns liquid.

In turn, `Cl.O=C1C(c2cccc(Br)c2)n2cncc2CN1CC1CC1` (centres unmarked) [Example 32, 5-(3-Bromo-phenyl)-7-cyclopropylmethyl-7,8-dihydro-imidazo[1,5-a]pyrazin-6-one hydrochloride] yielded a melting point of 249 to 250 °C. For the same compound, the IC50 in series [1] was approximately 9 nM.
